Laboratory results from EP1067939B1, “USE OF STEROIDAL ALKALOID DERIVATIVES AS INHIBITORS OF HEDGEHOG PROTEIN SIGNALING PATHWAYS” (The Johns Hopkins University, priority 1998, dated 1999).
Like-named read-outs stand apart in the source and are kept apart here.

Key:
His6Hh-C = biological target: T1, His6Hh-C (Drosophila melanogaster, UniProt Q02936); experiment: In vitro Hh autoprocessing reaction with purified components; assay type: biochemical; settings: for efficiency in driving the in vitro autoprocessing reaction: 12 µM sterol
T1 construct: made in house

Shh-N = experiment: Intermediate neural plate explant response to exogenous Shh-N protein; assay type: cell-based, chick
BMP7 = experiment: Neural plate explant response to BMP7 (migratory HNK-1 positive cells); assay type: cell-based, chick
[1] = at the concentrations that block the response to 25 nM Shh-N

T1 sequence (Q02936 252-471): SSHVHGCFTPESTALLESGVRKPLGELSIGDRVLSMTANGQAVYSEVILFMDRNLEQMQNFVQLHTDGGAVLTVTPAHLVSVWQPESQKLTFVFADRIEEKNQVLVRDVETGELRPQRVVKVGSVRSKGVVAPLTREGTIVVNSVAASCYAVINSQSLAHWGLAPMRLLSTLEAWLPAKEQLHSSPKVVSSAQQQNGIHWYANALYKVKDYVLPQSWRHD

## C[C@H]([C@H](O)CCC(C)(C)O)[C@H]1CC[C@@]2(O)C3=CC(=O)[C@@H]4C[C@@H](O)[C@@H](O)C[C@]4(C)[C@H]3CC[C@]12C [α-ecdysone]
His6Hh-C
  participation of sterol in the autoprocessing reaction: unable to participatein the reaction

## CN(C)CCCN1c2ccccc2CCc2ccccc21 [imipramine]
Shh-N; 25 nM Shh-N
  concentration that blocks the response of intermediate neural plate explants to 25 nM Shh-N: 75 µM
BMP7; [1]
  signaling by BMP7: without affecting signaling by BMP7

## CC(=O)[C@H]1CC[C@H]2[C@@H]3CCC4=CC(=O)CC[C@]4(C)[C@H]3CC[C@]12C [progesterone]
Shh-N; 25 nM Shh-N
  concentration that blocks the response of intermediate neural plate explants to 25 nM Shh-N: 20 µM
BMP7; [1]
  signaling by BMP7: without affecting signaling by BMP7

## CC(C)CCC[C@@H](C)[C@H]1CC[C@H]2[C@@H]3CC=C4C[C@@H](S)CC[C@]4(C)[C@H]3CC[C@]12C [thiocholesterol]
His6Hh-C
  participation of sterol in the autoprocessing reaction: unable to participatein the reaction

## CC(C)(O)CC[C@@H](O)[C@](C)(O)[C@H]1CC[C@@]2(O)C3=CC(=O)[C@@H]4C[C@@H](O)[C@@H](O)C[C@]4(C)[C@H]3CC[C@]12C [20-OH ecdysone]
His6Hh-C
  participation of sterol in the autoprocessing reaction: unable to participatein the reaction

## CC(C)=CCC[C@@H](C)[C@H]1CC[C@@]2(C)C3=C(CC[C@]12C)[C@@]1(C)CC[C@H](O)C(C)(C)[C@@H]1CC3 [Lanosterol]
His6Hh-C; 12 and 350 µM
  stimulation of autoprocessing: do not stimulate autoprocessing above background

## CC(C)CC[C@@H](O)[C@](C)(O)[C@H]1CC[C@@]2(O)C3=CC(=O)[C@]4(O)C[C@@H](O)[C@@H](O)C[C@]4(C)[C@H]3[C@H](O)C[C@]12C [muristerone]
His6Hh-C
  stimulation of autoprocessing: do not stimulate autoprocessing above background

## CC(C)=CCC[C@@H](C)[C@H]1CC[C@H]2[C@@H]3CC=C4C[C@@H](O)CC[C@]4(C)[C@H]3CC[C@]12C [desmosterol]
His6Hh-C
  efficiency in driving the in vitro autoprocessing reaction: efficiencies similar to that of cholesterol

## CCN(CC)CCCC(C)Nc1ccnc2cc(Cl)ccc12 (centres unmarked) [chloroquine]
Shh-N
  concentration that blocks the response of intermediate neural plate explants to 25 nM Shh-N: 50 µM
BMP7
  signaling by BMP7: without affecting signaling by BMP7

## CC(C)CCC[C@@H](C)[C@H]1CC[C@H]2C3=CC[C@H]4C[C@@H](O)CC[C@]4(C)[C@H]3CC[C@]12C [lathosterol]
His6Hh-C
  efficiency in driving the in vitro autoprocessing reaction: efficiencies similar to that of cholesterol

## CCN(CC)CCO[C@H]1CC[C@@]2(C)C(=CC[C@@H]3[C@@H]2CC[C@]2(C)C(=O)CC[C@@H]32)C1 [U 18666A]
Shh-N; 25 nM Shh-N
  concentration that blocks the response of intermediate neural plate explants to 25 nM Shh-N: 0.25 µM
BMP7; [1]
  signaling by BMP7: without affecting signaling by BMP7

## CC(=O)O[C@H]1CC[C@@]2(C)C(=CC[C@H]3[C@@H]4CC[C@H]([C@H](C)CCCC(C)C)[C@@]4(C)CC[C@@H]32)C1 [cholesterol acetate]
His6Hh-C
  participation of sterol in the autoprocessing reaction: unable to participatein the reaction

## CC(C)CCC[C@@H](C)[C@H]1CC[C@H]2C3=CC=C4C[C@@H](O)CC[C@]4(C)[C@H]3CC[C@]12C [7DHC, 7-dehydrocholestetol]
His6Hh-C
  efficiency in driving the in vitro autoprocessing reaction: efficiencies similar to that of cholesterol

## C[C@H](CCCC(C)(C)O)[C@H]1CC[C@H]2[C@@H]3CC=C4C[C@@H](O)CC[C@]4(C)[C@H]3CC[C@]12C [25-hydroxycholesterol]
Shh-N; 25 µM added together with teratogenic compounds
  reversal of the inhibitory effects of the teratogenic compounds: did not reverse the inhibitory effects
Shh-N; 25 µM, 2nM or 25 nM Shh-N
  explant responses to Shh-N: None of the explant responses to treatment with 2nM or 25 nM Shh-N were affected

## CC(C)CCC[C@@H](C)[C@H]1CC[C@H]2[C@@H]3CC=C4C[C@H](O)CC[C@]4(C)[C@H]3CC[C@]12C [Epicholesterol]
His6Hh-C
  participation of sterol in the autoprocessing reaction: unable to participatein the reaction
